From ChEMBL document CHEMBL1128077, “6,3'-Dinitroflavone, a novel high affinity ligand for the benzodiazepine receptor with potent anxiolytic properties” (Bioorg Med Chem Lett, 1995)

Target: GABA-A receptor; anion channel
Test: Inhibition of [3H]flunitrazepam binding to GABA-A central benzodiazepine receptor of bovine cerebral cortical membranes
Design: species or system Bos taurus

Structure (SMILES) | Ki
O=c1cc(-c2cccc([N+](=O)[O-])c2)oc2ccc([N+](=O)[O-])cc12 | 0.012 µM
O=c1cc(-c2ccc([N+](=O)[O-])cc2)oc2ccc([N+](=O)[O-])cc12 | 17 µM
